Common to all, as to format: cell-based
The subject of assay [1] is RT-112 (FGFR3-Tacc3 fusion) cells. The assay is described as follows: cell proliferation assay (CellTiterGlo), RT-112 cells. The note with it: Homo sapiens, RT-112, RT112 cells, 72 hours. The essentials: (§1)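 Suspended cells plated; DMSO or compound dose range added; intracellular ATP read by CellTiterGlo luminescence; IC50 vs vehicle-normalized viability.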
In general terms: In ATP-based viability assays light output follows the ATP content of the culture.

For assay [2], the system named is UM-UC-14 (FGFR3-S249C) cells. The experiment in a line: cell proliferation assay (CellTiterGlo), UM-UC-14 cells. The note with it: UMUC14, 72 h. The method in brief:
as §1

The test system of assay [3] is SNU-16 (FGFR2-amplification) cells. The assay is described as follows: cell proliferation assay (CellTiterGlo), SNU-16 cells. Particulars: Homo sapiens, 72 hours. The essentials:
as §1

Assay [4] has as its system DMS-114 (FGFR1 overexpression) cells. The assay is described as follows: cell proliferation assay (CellTiterGlo), DMS-114 cells. Particulars: Homo sapiens, DMS-114, 72 h. The method in brief:
as §1

As to `Cc1nc2ccc(Oc3ccc4ncc(-c5cnn(CCC6CCS(=O)(=O)C6)c5)nc4c3Br)cc2[nH]1` (stereo not drawn) [Compound 278], the IC50 in assay [1] was less than 20 nM; in assay [2], less than 20 nM; in assay [3], less than 20 nM; in assay [4], not below 400 nM.
`COC1CN([C@H]2C[C@@H](n3cc(-c4cnc5ccc(Oc6ccc7nc(C)[nH]c7c6)c(Cl)c5n4)cn3)C2)C1` [Compound 201]: the IC50 in assay [1] was 20 to 100 nM; in assay [2], 20 to 100 nM; in assay [3], 20 to 100 nM; in assay [4], not below 400 nM.
For the compound `Cc1nc2ccc(Oc3ccc4ncc(-c5cnn(CC(=O)N6CCCC6)c5)nc4c3Cl)cc2[nH]1` [Compound 383], the IC50 was 20 to 100 nM in assay [1], 20 to 100 nM in assay [2], 20 to 100 nM in assay [3] and not below 400 nM in assay [4].
For the compound `Cc1nc2ccc(Oc3ccc4ncc(-c5cnn(CC(=O)NCCO)c5)nc4c3Cl)cc2[nH]1` [Compound 348], the IC50 was 100 to 400 nM in assay [1], not below 400 nM in assay [2], not below 400 nM in assay [3] and not below 400 nM in assay [4].
Turning to `Cc1nc2ccc(Oc3ccc4ncc(-c5cnn(C6CCNC7(CC7)C6)c5)nc4c3Cl)c(F)c2[nH]1` (stereo not drawn) [Compound 139], the IC50 is less than 20 nM in assay [1], 20 to 100 nM in assay [2], less than 20 nM in assay [3] and 20 to 100 nM in assay [4].
Regarding `Cc1nc2ccc(Oc3ccc4ncc(-c5cnn(CC6CC(F)(F)C6)c5)nc4c3C3COC3)cc2[nH]1` [Compound 97], the IC50 in assay [1] is 100 to 400 nM; in assay [2], 100 to 400 nM; in assay [3], 20 to 100 nM; in assay [4] it was not below 400 nM.
Consider `Cc1nc2ccc(Oc3ccc4ncc(-c5cnn(C6CC7(C6)OCCO7)c5)nc4c3Cl)cc2[nH]1` [Compound 346], for which the IC50 in assay [1] is 20 to 100 nM; in assay [2] it was 20 to 100 nM; in assay [3] it was 20 to 100 nM; in assay [4], not below 400 nM.
Turning to `Cc1nc2ccc(Oc3ccc4ncc(-c5cnn(CC6CN(C)CCO6)c5)nc4c3Cl)cc2[nH]1` (stereo not drawn) [Compound 271], the IC50 in assay [1] was less than 20 nM; in assay [2], 20 to 100 nM; in assay [3] it was 20 to 100 nM; in assay [4] it was not below 400 nM.
Regarding `Cc1nc2ccc(Oc3ccc4ncc(-c5cnn([C@H]6C[C@](C)(O)C6)c5)nc4c3Cl)c(F)c2[nH]1` [Compound 149], the IC50 in assay [1] is less than 20 nM; in assay [2], less than 20 nM; in assay [3], less than 20 nM; in assay [4] it was 100 to 400 nM.
For `Cc1nc2ccc(Oc3ccc4ncc(-c5cnn(CCN6CCCC6=O)c5)nc4c3Cl)cc2[nH]1` [Compound 215], the IC50 was 20 to 100 nM in assay [1], 20 to 100 nM in assay [2], 20 to 100 nM in assay [3] and not below 400 nM in assay [4].
As to `Cc1nc2ccc(Oc3ccc4ncc(-c5cnn(C6CCN(c7cncc(F)c7)CC6)c5)nc4c3Cl)cc2[nH]1` [Compound 197], the IC50 in assay [1] was 20 to 100 nM; in assay [2] it was 100 to 400 nM; in assay [3], 100 to 400 nM; in assay [4], not below 400 nM.
Regarding `Cc1nc2ccc(Oc3ccc4ncc(-c5cnn(C(=O)OC(C)C)c5)nc4c3Cl)c(F)c2[nH]1` [Compound 141], the IC50 in assay [1] is 100 to 400 nM; in assay [2], 100 to 400 nM; in assay [3], 20 to 100 nM; in assay [4], not below 400 nM.
In the case of `Cc1nc2ccc(Oc3ccc4ncc(-c5cnn(CCNCCO)c5)nc4c3Cl)cc2[nH]1` [Compound 350], the IC50 in assay [1] is 20 to 100 nM; in assay [2] it was 100 to 400 nM; in assay [3], 100 to 400 nM; in assay [4] it was not below 400 nM.
Take `C=CCn1cc(-c2cnc3ccc(Oc4ccc5nc(C)[nH]c5c4)c(Cl)c3n2)cn1` [Compound 347]: the IC50 in assay [1] was 20 to 100 nM; in assay [2], 100 to 400 nM; in assay [3], 20 to 100 nM; in assay [4] it was not below 400 nM.
As for `Cc1nc2ccc(Oc3ccc4ncc(-c5cnn(C[C@@H]6CCS(=O)(=O)C6)c5)nc4c3Cl)cc2[nH]1` [Compound 307], the IC50 in assay [1] was less than 20 nM; in assay [2] it was 20 to 100 nM; in assay [3] it was less than 20 nM; in assay [4] it was 100 to 400 nM.
For the compound `Cc1nc2ccc(Oc3ccc4ncc(-c5cnn(CC6CC(F)(F)C6)c5)nc4c3C3CC3)cc2[nH]1` [Compound 216], the IC50 is 100 to 400 nM in assay [1], 100 to 400 nM in assay [2], 100 to 400 nM in assay [3] and not below 400 nM in assay [4].
Regarding `Cc1nc2ccc(Oc3ccc4ncc(-c5cnn(C6CCS(=N)(=O)CC6)c5)nc4c3Cl)cc2[nH]1` (stereo not drawn) [Compound 85], the IC50 in assay [1] is 20 to 100 nM; in assay [2], 100 to 400 nM; in assay [3] it was 20 to 100 nM; in assay [4] it was not below 400 nM.
Take `Cc1nc2ccc(Oc3ccc4ncc(-c5cnn(CC6CC(=O)C6)c5)nc4c3Cl)cc2[nH]1` [Compound 308]: the IC50 is 20 to 100 nM in assay [1], 20 to 100 nM in assay [2], 20 to 100 nM in assay [3] and not below 400 nM in assay [4].

For orientation: IC50 means the midpoint of a concentration-inhibition curve. A high value points to weaker potency.

These data come from patent publication US20240368181A1, “QUINOXALINE DERIVATIVES AND USES THEREOF” (Black Diamond Therapeutics, Inc., priority 2021, published 2024).
